Test results published in patent US20020128317A1, “Treatment of pathological conditions characterized by an increased IL-1 level” (Laboratories NEGMA, priority 2001, published 2002).

Assays:
[1] = test system: IL-1; assay: Effect of administration on IL-1 levels in subjects; assay type: in vivo; conditions: subjects with abnormally elevated IL-1 and TNF-α levels
[2] = test system: cyclooxygenase pathway; assay: Inhibitory effect on cyclooxygenase pathway; assay type: biochemical
Source text: (§1) This unique mechanism of action of diacerein was thought to explain, at least in part, its efficacy in the symptomatic treatment of osteoarthritis.

[3] = test system: prostaglandin biosynthesis; assay: Inhibition of prostaglandin biosynthesis; assay type: biochemical
Source text: as §1

[4] = test system: IL-1; assay: IL-1 inhibition, several studies in vitro and with animal models of osteoarthritis
Source text: as §1

[5] = Stability in aqueous solution; assay type: physicochemical
Description: (§2) Preferably the diacerein or rhein is administered orally in the conventional solid unit dosage form.

[6] = test system: lipooxygenase pathway; assay: Inhibitory effect on lipooxygenase pathway; assay type: biochemical
Source text: as §1

[7] = test system: TNF-α; assay: Effect of administration on TNF-α levels in subjects; assay type: in vivo; conditions: subjects with abnormally elevated IL-1 and TNF-α levels
[8] = Gastric safety during osteoarthritis treatment; assay type: in vivo
Source text: as §1

[9] = test system: phospholipase pathway; assay: Inhibitory effect on phospholipase pathway; assay type: biochemical
Source text: as §1

[10] = Solubility; assay type: physicochemical
Description: as §2

[11] = test system: cartilage degradation; assay: Effect on cartilage degradation in osteoarthritis treatment; assay type: in vivo; conditions: prescribed treatment protocol

In the case of diacerein, the “effect on IL-1 levels” value [1] is reported as “inhibitory effect”, the “inhibitory effect on the cyclooxygenase pathway” value [2] is reported as “no inhibitory effect was detected” and the “inhibition of prostaglandin biosynthesis” value [3] is reported as “neither diacerein nor rhein inhibit”. The IL-1 inhibition [4] was “is an IL-1 inhibitor”, the stability in water [5] was “may not be sufficiently stable” and the “inhibitory effect on the lipooxygenase pathway” value [6] was “no inhibitory effect was detected”. The “effect on TNF-α levels” value [7] was “inhibitory effect”, the gastric safety profile [8] was “excellent gastric safety profile” and the “inhibitory effect on the phospholipase pathway” value [9] was “no inhibitory effect was detected”. The solubility in alcohol ([10]; alcohol) was “virtually insoluble”, the solubility in water ([10]; water) was “virtually insoluble” and the “effect on cartilage degradation” value [11] was “significant effect on cartilage degradation”.
